Results: patent US12336987B2, “Quinoline amides and methods of using same” (YALE UNIVERSITY, priority 2015, dated 2025)
Where no end group is shown, it is not given here.

Columns and labels:
IAPP20-29 = molecular target: T1, IAPP20-29 (Homo sapiens, UniProt P10997); test: Amyloid assembly kinetics of the 10-residue peptide IAPP20-29; type: biochemical; conditions: 200 μM IAPP20-29
T1 construct: the 10-residue sub-peptide, IAPP20-29
Protocol: Amyloid reactions were conducted in buffer containing liposome (630 μM lipid) and 20 μM ThT in a black 96-well plate. This was followed by addition of small molecule dissolved in DMSO (final DMSO concentration=0.5%, v/v). Fibre formation was initiated by addition of IAPP stock solution. The final volume in each well was 200 μL. Kinetics of fibrillation was monitored by ThT fluorescence (Ex 450 nm and Em 485 nm) using a FluoDia T70 fluorescence plate reader (Photon Technology International, Edison, NJ, USA). The data were blank subtracted and renormalized to the maximum intensity of reactions containing only IAPP. Each kinetic trace was fit to a sigmoidal form:
[formula] where I is the fluorescence intensity, t is time, and b, m, and r are dependent fitting variables. All samples were run at least in triplicate and error bars shown in the text represent ±one standard deviation. Transmission Electron Microscopy

IAPP = molecular target: T2, IAPP (Homo sapiens, UniProt P10997); test: Kinetic assay of IAPP fibre formation (ThT fluorescence), in solution or catalysed by LUVs; type: biochemical; conditions: 10 μM IAPP, 630 μM LUVs, IAPP:small molecule 1:1
T2 construct: purchased Genscript; Elim Biopharmaceuticals
T2 sequence (P10997 34-70 limits assumed): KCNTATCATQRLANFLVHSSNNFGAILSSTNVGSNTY
Protocol: Unless otherwise stated, LUVs used in this work were prepared from a 1:1 mixture of DOPG/DOPC. The lyophilized mixture was hydrated in 100 mM KCl, 50 mM sodium phosphate, and pH 7.4 for 20 minutes. A 20 mg/mL solution of lipid in buffer was passed 21 times through a polycarbonate membrane (pore diameter=100 nm).
Amyloid reactions were conducted in buffer containing liposome (630 μM lipid) and 20 μM ThT in a black 96-well plate. This was followed by addition of small molecule dissolved in DMSO (final DMSO concentration=0.5%, v/v). […] The final volume in each well was 200 μL. Kinetics of fibrillation was monitored by ThT fluorescence (Ex 450 nm and Em 485 nm) using a FluoDia T70 fluorescence plate reader (Photon Technology International, Edison, NJ, USA). […] Each kinetic trace was fit to a sigmoidal form:

INS-1 cells = test: Cell viability (Cell-Titer Blue), IAPP induced toxicity and rescue; type: cell-based, rat; conditions: 13 μM IAPP; for rescue of IAPP induced toxicity, co-addition: 1:1 IAPP:ligand co-added, 48 h
Protocol: Rat insulinoma INS-1 cells (832/13, Dr. Gary W. Cline, Department of Internal Medicine, Yale University) were cultured at 37° C. and 5% CO2 in phenol red free RPMI 1640 media supplemented with 10% fetal bovine serum, 1% penicillin/streptomycin (Life Technologies, Carlsbad, CA, USA), and 2% INS-1 stock solution (500 mM HEPES, 100 mM L-glutamine, 100 mM sodium pyruvate, and 2.5 mM β-mercaptoethanol). Cells were passaged upon reaching ˜95% confluence (0.25% Trypsin-EDTA, Life Technologies), propagated, and/or used in experiments. Cells used in experiments were pelleted and resuspended in fresh media with no Trypsin-EDTA.
Cell viability was measured colourimetrically using the Cell-Titer Blue (CTB, Promega, Madison, WI, USA) fluorescence-based assay. Cells were plated at a density 5000 cells/well in 96-well plates (BD Biosciences, San Diego, CA). Peptide was directly introduced to each well after 48 h of culture and then further incubated for an additional 48 h. For time dependent experiments, cells were incubated with peptide for the specified time points. After the incubation period, 20 μL CTB reagent was added to each well and incubated at 37° C. and 5% CO2 for 2.5-3.5 h. Fluorescence of the resorufin product was measured on a FluoDia T70 fluorescence plate reader (Photon Technology International, Birmingham, NJ, USA). All wells included the same amount of water to account for different concentrations of peptide added to sample wells. Wells that included water vehicle but not peptide served as the negative control (0% toxic), and wells containing 10% DMSO were the positive control (100% toxic). Percent toxicity was calculated using the following equation: […]
Each independent variable is the average of eight plate replicates from the negative control (<N>), positive control (<P>), and samples (<S>). Results presented for viability experiments are an average of three such experiments conducted independently on different days. Error bars represent the standard error of the mean.

[1] = system: Src and its homologue, Abl; conditions: background statement; cited from earlier work

Row | Molecule | effect on liposome catalysed fibrillation (IAPP) | rescue of IAPP induced toxicity, co-addition (INS-1 cells) | other results
1 | IAPP20-29: 10-residue sub-peptide of IAPP, residues 20-29 (SNNFGAILSS; Islet amyloid polypeptide; UniProt P10997 53-62, looked up, fragment) | – | – | t50 of amyloid formation (IAPP20-29): 6.6 ± 0.3 h
2 | COC(=O)c1cc(OCC(=O)O)c2cccc(NC(=O)c3cc(OCC(=O)O)c4cccc(NC(=O)c5cc(OCC(=O)O)c6cccc(NC(=O)c7cc(OCC(=O)O)c8cccc(NC(=O)c9cc(OCC(=O)O)c%10cccc([N+](=O)[O-])c%10n9)c8n7)c6n5)c4n3)c2c1 [ADM-118] | – | – | inhibition of liposome catalysed fibrillation, t50 relative to control (IAPP): 3.3±0.1 fold
3 | Cc1ccc(NC(=O)c2ccc(CN3CCN(C)CC3)cc2)cc1Nc1nccc(-c2cccnc2)n1 [Gleevec] | – | – | difference in binding affinity between Src and Abl [1]: > 1,000 fold
4 | IAPP: 37-residue, C-terminally amidated human islet amyloid polypeptide (SEQ ID NO:1) (KCNTATCATQRLANFLVHSSNNFGAILSSTNVGSNTY-NH2; cysteine pairing not given here) | – | – | decrease of INS-1 viability (INS-1 cells; 48 h incubation): 78±8%

Now from value to molecule, other results behind:

Row | effect on liposome catalysed fibrillation (IAPP) | Molecule | rescue of IAPP induced toxicity, co-addition (INS-1 cells) | other results
5 | no detectable effect | O=C(O[C@@H]1Cc2c(O)cc(O)cc2O[C@@H]1c1cc(O)c(O)c(O)c1)c1cc(O)c(O)c(O)c1 [EGCG] | ineffective in rescuing toxicity | –
6 | no detectable effect | Oc1ccc(C=Cc2cc(O)cc(O)c2)cc1 [resveratrol] | ineffective in rescuing toxicity | –
7 | no detectable effect | acid fuchsin | ineffective in rescuing toxicity | –
